# Laboratory results reported in the supplement of paper PMC10307832.
# Assays:
# Experiment in all cases: relative viability (nuclei count vs DMSO), 5 days (fraction); higher = more cells survive
# [1] = compound: CC1=CN=C(N=C1C2=CNC(=C2)C(=O)N[C@H](CO)C3=CC(=CC=C3)Cl)NC4=C(C=C(C=C4)F)Cl [VX-11e]
# Procedure, shortened: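 A plate was accepted only when its control CV was below 25% and the cells had doubled at least once. Viability is defined from nuclear counts as treated wells divided by vehicle wells, with the median taken across plates. That median covers lung cancer cell lines grown in 1536-well plates, dosed by pinning at five √10-spaced library-drug concentrations, and counted in MetaXpress from 4× Hoechst images after 5 days.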
# [2] = compound: CC1=CN=C(N=C1C2=CNC(=C2)C(=O)N[C@H](CO)C3=CC(=CC=C3)Cl)NC4=C(C=C(C=C4)F)Cl [VX-11e] + CC(=O)Nc1cccc(-n2c(=O)n(C3CC3)c(=O)c3c(Nc4ccc(I)cc4F)n(C)c(=O)c(C)c32)c1 [Trametinib] (partner 0.02 µM)
# Procedure, shortened: (§1)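 The day after seeding in 1536-well plates, lung cancer cell lines were treated by pin tool with a single drug, or with a fixed anchor-drug dose together with five library-drug doses (not always all listed) in √10 steps. After 5 days, a combined fix-and-stain solution (final 0.05% Triton X-100, 1% formaldehyde, 1 ug/ml Hoechst) was added. Nuclei counted on 4× images gave relative viability as treated counts over vehicle counts, reported as the median of duplicate plates.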
# [3] = compound: CC1=CN=C(N=C1C2=CNC(=C2)C(=O)N[C@H](CO)C3=CC(=CC=C3)Cl)NC4=C(C=C(C=C4)F)Cl [VX-11e] + COc1cccc2cc(-c3nc([C@H]4CC[C@H](C(=O)O)CC4)n4ncnc(N)c34)[nH]c12 [OSI-027] (partner 0.5 µM)
# Procedure, shortened: as §1
# [4] = compound: CC1=CN=C(N=C1C2=CNC(=C2)C(=O)N[C@H](CO)C3=CC(=CC=C3)Cl)NC4=C(C=C(C=C4)F)Cl [VX-11e] + N=C(N)NC(=N)NCCc1ccccc1 [Phenformin] (partner 250 µM)
# Procedure, shortened: as §1
Cell Line,relative viability ([1]; 0.04 µM),relative viability ([1]; 0.1265 µM),relative viability ([1]; 1.265 µM),relative viability ([1]; 4 µM),relative viability ([2]; first compound 0.04 µM),relative viability ([2]; first compound 0.1265 µM),relative viability ([2]; first compound 1.265 µM),relative viability ([2]; first compound 4 µM),relative viability ([3]; first compound 0.04 µM),relative viability ([3]; first compound 0.1265 µM),relative viability ([3]; first compound 1.265 µM),relative viability ([3]; first compound 4 µM),relative viability ([4]; first compound 0.04 µM),relative viability ([4]; first compound 0.1265 µM),relative viability ([4]; first compound 1.265 µM),relative viability ([4]; first compound 4 µM),relative viability ([1]; 0.4 µM),relative viability ([2]; first compound 0.4 µM),relative viability ([3]; first compound 0.4 µM),relative viability ([4]; first compound 0.4 µM)
HCC-15,1.05,1.01,0.669,0.285,0.354,0.345,0.297,0.246,0.616,0.624,0.227,0.153,0.57,0.464,0.211,0.162,,,,
HCC-44,1,0.941,0.915,0.733,1.05,1.07,0.888,0.607,0.485,0.453,0.247,0.284,0.211,0.172,0.119,0.139,0.907,0.92,0.144,0.115
HCC-78,0.934,1.02,0.68,0.667,0.827,0.651,0.559,0.387,,0.364,0.376,0.393,,0.75,0.672,0.738,1.01,0.632,0.395,0.857
HCC-366,0.997,0.936,1.03,0.676,0.353,0.344,0.289,0.187,0.811,0.795,0.544,0.136,0.61,0.549,0.57,0.463,,,,
